# Reference: patent publication EP2322149A1, “Methods and compositions for the treatment of ischemia” (Universidad del Pais Vasco, priority 2009, dated 2011)
# Entries after “also recorded” stand apart in the source; their conditions may differ. Counter-ions that a name gives are not always drawn.
# Key:
# [1] = tested on: optic nerves; assay: Optic nerve ischaemia (OGD), tissue damage by LDH release; parameters: species or system rats; settings: P28 rat optic nerves, 1h OGD + 2h reperfusion; PPADS 1 mM, BBG 50 nM, oATP 1 mM, apyrase 20 U/ml, MFQ 1 µM, CBX 100 µM, FFA 1 mM
# Procedure: (§1) After 1h OGD at 37°C, the medium was replaced with fresh solution containing glucose and equilibrated with 95% O2, 5% CO2 and the nerves were incubated for another 2h at 37°C to simulate reperfusion.
# [2] = tested on: cultured optic nerve oligodendrocytes; assay: ATP release measurement (luciferin/luciferase) in oligodendrocyte cultures after OGD; type: cell-based, Sprague-Dawley rats; settings: 1h OGD in the presence of ARL67156; CBX 20 µM, FFA 100 µM, MFQ 1 nM (figure legend)
# Procedure: (§2) Primary cultures of oligodendrocytes derived from optic nerves of 12 day-old Sprague-Dawley rats were obtained as previously described (Matute et al., 1997 Proc Natl Acad Sci U S A 94:8830-8835.).Cells were maintained at 37°C and 5% CO2 in a chemically defined medium (Matute et al., 1997 Proc Natl Acad Sci U S A 94:8830-8835.). After 2-4 days in vitro, cultures were composed of at least 98% 04/Ga1C^+ cells. No microglial cells were detected in these cultures. […] Cell death was determined 24h later using calcein-AM (Invitrogen) as previously described (Matute et al., 1997 Proc Natl Acad Sci U S A 94:8830-8835.). Antagonists were present during in vitro ischaemia and during the next 24h incubation period. […] To assay the levels of reactive oxygen species (ROS), cells were loaded with 40 µM 2',7'- dichlorodihyfluoresceindiacetate (DCFDA; Invitrogen) and 1 µM calcein red-orange (Molecular Probes) immediately after OGD. Calcein was used to quantify the number of cells within the reading field. Fluorescence was measured as above and values were plotted as the percentage of DCFDA/calcein red-orange fluorescence versus control. The changes in mitochondrial membrane potential were monitored with 5,5',6,6'-tetrachloro-1,1',3,3'-tetraethylbenzimidazolcarbocyanine iodide (JC-1; Molecular Probes). Immediately after OGD, cells were loaded with JC-1 (3 µM) at 37°C for 30 min. The changes in the membrane potential were calculated as the red (emission at 590)/green (emission at 520) ratio in each condition and results were normalized to control.
# (§3) ATP levels were measured using a Luciferin/Luciferase assay kit (Invitrogen) after 1h normoxia or OGD in oligodendrocyte cultures and in isolated optic nerves according to the manufacturer's instructions. The luminescence was measured with a luminometer Synergy-HT (BioTek) with an integration time of 3 sec. Because ATP was measured in the culture medium and in the solution bathing optic nerves, the concentration of ATP at the extracellular surface, near the vicinity of the receptor was underestimated (Joseph et al., 2003. J Biol Chem 278:23331-23342). The limit of ATP detection was 1 nM and luminescence was linear with increasing ATP concentrations to 1000 nM. The total amount of ATP was calculated according to standard curves and ATP release was expressed in percentage vs control.
# [3] = tested on: optic nerve oligodendrocytes; assay: Oxygen and glucose deprivation (OGD) cell death in oligodendrocyte cultures (calcein-AM); type: cell-based, Sprague-Dawley rats; settings: 1h OGD, calcein 24h later; PPADS 100 µM, BBG 50 nM, CNQX 30 µM, APV 100 µM, apyrase 20 U/ml, ARL67156 100 µM, CBX 20 µM, FFA 100 µM, MFQ 1 nM
# Procedure: as §2
# [4] = tested on: optic nerve; assay: ATP release measurement (luciferin/luciferase) in isolated optic nerves after OGD; parameters: species or system rats; settings: MFQ 1 µM, CBX 100 µM
# Procedure: as §3, §1
# [5] = target: T1, P2X7 receptors in oligodendrocytes (Rattus norvegicus, UniProt Q64663); assay: ATP-evoked inward currents in whole-cell clamped oligodendrocytes; type: cell-based, Sprague-Dawley rats; settings: -70 mV; CBX 20 µM, MFQ 1 nM
# T1 construct: ATP (1 mM)-evoked inward currents in whole-cell clamped oligodendrocytes at -70 mV; endogenous in cells; host or cells: primary rat optic nerve oligodendrocytes
# T1 sequence (Q64663 1-595): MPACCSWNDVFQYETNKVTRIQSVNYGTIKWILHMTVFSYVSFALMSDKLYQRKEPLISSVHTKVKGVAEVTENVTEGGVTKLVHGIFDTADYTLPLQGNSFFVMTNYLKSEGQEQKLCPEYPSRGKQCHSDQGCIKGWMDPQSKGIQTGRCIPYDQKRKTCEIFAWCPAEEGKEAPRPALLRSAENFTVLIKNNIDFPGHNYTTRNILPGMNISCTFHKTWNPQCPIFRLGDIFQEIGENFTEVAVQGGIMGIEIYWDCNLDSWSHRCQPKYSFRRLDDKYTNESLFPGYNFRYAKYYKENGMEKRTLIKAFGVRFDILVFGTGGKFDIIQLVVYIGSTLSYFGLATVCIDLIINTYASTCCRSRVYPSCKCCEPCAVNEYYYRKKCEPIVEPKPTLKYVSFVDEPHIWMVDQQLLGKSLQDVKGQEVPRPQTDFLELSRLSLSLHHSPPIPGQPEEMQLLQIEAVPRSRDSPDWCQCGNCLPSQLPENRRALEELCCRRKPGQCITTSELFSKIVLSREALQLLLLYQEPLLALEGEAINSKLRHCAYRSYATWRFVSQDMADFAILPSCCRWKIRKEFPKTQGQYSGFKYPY
# Procedure: Primary cultures of oligodendrocytes derived from optic nerves of 12 day-old Sprague-Dawley rats were obtained as previously described (Matute et al., 1997 Proc Natl Acad Sci U S A 94:8830-8835.).Cells were maintained at 37°C and 5% CO2 in a chemically defined medium (Matute et al., 1997 Proc Natl Acad Sci U S A 94:8830-8835.). After 2-4 days in vitro, cultures were composed of at least 98% 04/Ga1C^+ cells. No microglial cells were detected in these cultures. […] Cell death was determined 24h later using calcein-AM (Invitrogen) as previously described (Matute et al., 1997 Proc Natl Acad Sci U S A 94:8830-8835.). […] Calcein was used to quantify the number of cells within the reading field. Fluorescence was measured as above and values were plotted as the percentage of DCFDA/calcein red-orange fluorescence versus control. The changes in mitochondrial membrane potential were monitored with 5,5',6,6'-tetrachloro-1,1',3,3'-tetraethylbenzimidazolcarbocyanine iodide (JC-1; Molecular Probes). […] The changes in the membrane potential were calculated as the red (emission at 590)/green (emission at 520) ratio in each condition and results were normalized to control.
# Whole cell recordings were performed at room temperature and at a holding membrane potential of -70 mV. […] Data were analyzed with Excel and Prism software.
# [6] = tested on: optic nerve oligodendrocytes; assay: Mitochondrial membrane potential (JC-1) after OGD in oligodendrocyte cultures; type: cell-based, Sprague-Dawley rats; settings: 1 h OGD; BBG 50 nM, PPADS 100 µM
# Procedure: (§4) Primary cultures of oligodendrocytes derived from optic nerves of 12 day-old Sprague-Dawley rats were obtained as previously described (Matute et al., 1997 Proc Natl Acad Sci U S A 94:8830-8835.).Cells were maintained at 37°C and 5% CO2 in a chemically defined medium (Matute et al., 1997 Proc Natl Acad Sci U S A 94:8830-8835.). After 2-4 days in vitro, cultures were composed of at least 98% 04/Ga1C^+ cells. No microglial cells were detected in these cultures. […] Cell death was determined 24h later using calcein-AM (Invitrogen) as previously described (Matute et al., 1997 Proc Natl Acad Sci U S A 94:8830-8835.). Antagonists were present during in vitro ischaemia and during the next 24h incubation period. […] Calcein was used to quantify the number of cells within the reading field. Fluorescence was measured as above and values were plotted as the percentage of DCFDA/calcein red-orange fluorescence versus control. The changes in mitochondrial membrane potential were monitored with 5,5',6,6'-tetrachloro-1,1',3,3'-tetraethylbenzimidazolcarbocyanine iodide (JC-1; Molecular Probes). […] The changes in the membrane potential were calculated as the red (emission at 590)/green (emission at 520) ratio in each condition and results were normalized to control.
# [7] = tested on: optic nerve oligodendrocytes; assay: Whole-cell recording of ischaemic inward current in cultured oligodendrocytes (chemical ischaemia); type: cell-based, Sprague-Dawley rats
# Procedure: After 2-4 days in vitro, cultures were composed of at least 98% 04/Ga1C^+ cells. No microglial cells were detected in these cultures. […] Cell death was determined 24h later using calcein-AM (Invitrogen) as previously described (Matute et al., 1997 Proc Natl Acad Sci U S A 94:8830-8835.). Antagonists were present during in vitro ischaemia and during the next 24h incubation period. […] Calcein was used to quantify the number of cells within the reading field. Fluorescence was measured as above and values were plotted as the percentage of DCFDA/calcein red-orange fluorescence versus control. […] Molecular Probes). […] The changes in the membrane potential were calculated as the red (emission at 590)/green (emission at 520) ratio in each condition and results were normalized to control. Whole cell recordings were performed at room temperature and at a holding membrane potential of -70 mV. Extracellular bath solution with a pH of 7.3 contained (in mM): […] Patch clamp pipettes (3-5 MΩ) were filled with internal solution at a pH of 7.3 containing (in mM): CsCI 140, CaC12 2, MgC12 2, HEPES 10, EGTA 11, Na-ATP 2. For electrophysiology monitoring, ischaemia was induced chemically by using the glycolytic blocker iodoacetate (1 mM) and the oxidative phosphorylation inhibitor antimycin (2.5 μM), and omitting glucose because recordings were performed in an open chamber where O2 can diffuse to the cells (Káradóttir et al., 2005). Recordings of ATP currents were performed in divalent cation-free extracellular solutions, obtained by omitting Ca^2+ and Mg^2+, to potentiate P2X-mediated responses (Matute et al., 1997 Proc Natl Acad Sci U S A 94:8830-8835.). […] Molecular Probes, Inc., Eugene, OR) in culture medium for 30 min at 37 °C. Experiments were carried out in a coverslip chamber continuously perfused with a buffer containing 20 mM HEPES, 2 mM CaC12, 10 mM glucose in HBSS at 1 ml/min. The perfusion chamber was mounted on the stage of a Zeiss inverted epifluorescence microscope (Axiovert 35), equipped with a 150 W xenon lamp Polychrome IV (TILL Photonics GMBH) and a Plan Neofluar 40x oil immersion objective (Zeiss, Germany). Cells were visualized with a high resolution digital B/W CCD camera (ORCA; Hamamatsu Photonics Iberica, Barcelona, Spain) and image acquisition and data analysis were carried out using the AquaCosmos software program (Hamamatsu Photonics Iberica). Images were acquired every 30 ms at 37°C and ischaemia was induced as above. […] At the end of the assay, in situ calibration was carried out with the successive addition of […] and 2M Tris/50 mM EGTA, pH 8.5. Data were analyzed with Excel and Prism software.
# [8] = tested on: AMPA and kainate receptors; assay: Glutamate receptor agonist (AMPA, kainate) induced oligodendrocyte death (calcein fluorescence); type: cell-based, Sprague-Dawley rats; settings: AMPA (100 µM) + cyclothiazide (100 µM), or kainate (3 mM) + GYKI 53655 (50 µM); PPADS 100 µM, BBG 50 nM
# Procedure: as §4
# [9] = target: P2X6 (Homo sapiens, UniProt O15547); settings: read-out: IC50 P2X6; cited from earlier work
# [10] = tested on: optic nerve oligodendrocytes; assay: Ca2+ imaging (fura-2) of oligodendrocytes during chemical ischaemia; type: cell-based, Sprague-Dawley rats; settings: chemical ischaemia; PPADS 100 µM, oATP 1 mM
# Procedure: After 2-4 days in vitro, cultures were composed of at least 98% 04/Ga1C^+ cells. No microglial cells were detected in these cultures. […] Cell death was determined 24h later using calcein-AM (Invitrogen) as previously described (Matute et al., 1997 Proc Natl Acad Sci U S A 94:8830-8835.). Antagonists were present during in vitro ischaemia and during the next 24h incubation period. […] Calcein was used to quantify the number of cells within the reading field. Fluorescence was measured as above and values were plotted as the percentage of DCFDA/calcein red-orange fluorescence versus control. […] Molecular Probes). […] The changes in the membrane potential were calculated as the red (emission at 590)/green (emission at 520) ratio in each condition and results were normalized to control. Whole cell recordings were performed at room temperature and at a holding membrane potential of -70 mV. Extracellular bath solution with a pH of 7.3 contained (in mM): […] Patch clamp pipettes (3-5 MΩ) were filled with internal solution at a pH of 7.3 containing (in mM): CsCI 140, CaC12 2, MgC12 2, HEPES 10, EGTA 11, Na-ATP 2. […] Data were analyzed with Excel and Prism software.
# [11] = target: T2, P2X1 (Homo sapiens, UniProt P51575); settings: read-out: IC50 P2X1; cited from earlier work
# T2 sequence (P51575 1-399): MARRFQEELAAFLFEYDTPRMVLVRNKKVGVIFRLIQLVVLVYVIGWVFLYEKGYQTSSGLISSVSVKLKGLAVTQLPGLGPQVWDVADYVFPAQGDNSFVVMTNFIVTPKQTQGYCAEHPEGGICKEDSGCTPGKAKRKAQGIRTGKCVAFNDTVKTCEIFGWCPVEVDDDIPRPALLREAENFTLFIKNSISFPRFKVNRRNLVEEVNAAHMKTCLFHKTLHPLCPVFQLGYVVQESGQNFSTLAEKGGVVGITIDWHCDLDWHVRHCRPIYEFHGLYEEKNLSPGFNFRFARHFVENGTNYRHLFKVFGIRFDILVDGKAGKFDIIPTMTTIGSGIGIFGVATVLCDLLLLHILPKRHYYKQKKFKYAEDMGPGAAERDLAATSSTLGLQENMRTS
# [12] = tested on: optic nerve oligodendrocytes; assay: Reactive oxygen species (DCFDA) after OGD in oligodendrocyte cultures; type: cell-based, Sprague-Dawley rats; settings: 1 h OGD; BBG 50 nM, PPADS 100 µM
# Procedure: as §4
# Sequence of P2X6 (O15547 whole entry, species assumed): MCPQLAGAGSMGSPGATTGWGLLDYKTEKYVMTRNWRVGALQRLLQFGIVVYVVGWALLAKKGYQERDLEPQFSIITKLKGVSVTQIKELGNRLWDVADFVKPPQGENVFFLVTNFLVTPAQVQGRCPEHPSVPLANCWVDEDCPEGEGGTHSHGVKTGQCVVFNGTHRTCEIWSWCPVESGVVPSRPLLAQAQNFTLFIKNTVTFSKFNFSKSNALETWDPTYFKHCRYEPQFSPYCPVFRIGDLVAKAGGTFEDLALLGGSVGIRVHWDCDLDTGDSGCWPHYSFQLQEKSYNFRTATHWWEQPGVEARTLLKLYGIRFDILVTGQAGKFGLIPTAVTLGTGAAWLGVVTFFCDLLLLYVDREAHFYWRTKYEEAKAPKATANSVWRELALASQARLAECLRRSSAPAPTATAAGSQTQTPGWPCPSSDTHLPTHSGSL
ATP levels after OGD [2],ATP levels during OGD [4],ATP (1 mM)-evoked inward currents [5],SMILES,ischaemia-induced damage to optic nerves (LDH release) [1],OGD-induced oligodendrocyte cell death [3],mitochondrial depolarization [6],"OGD currents after drug application versus OGD currents before drug application ([7]; after washing the antagonists out, average over BBG and PPADS, n= 15)","ischaemic inward currents ([7]; chemical ischaemia (iodoacetate, antimycin, no glucose), -70 mV, PPADS 100 µM, oATP 1 mM, BBG 50 nM)",glutamate receptor-induced oligodendrocyte death [8],IC50 [9],increase in [Ca2+]i caused by ischaemia [10],IC50 [11],generation of radical oxygen species (ROS) [12]
significantly reduced,reduced,not reduced,"OC(c1cc(C(F)(F)F)nc2c(C(F)(F)F)cccc12)C1CCCCN1 [MFQ, [8-bis(trifluoromethyl)quinolin-4-yl]-[(2R)-piperidin-2-yl]methanol]",reduced; also recorded: attenuated,inhibited,,,,,,,,
,,,"Cc1nc(N=Nc2ccc(S(=O)(=O)O)cc2S(=O)(=O)O)c(COP(=O)(O)O)c(C=O)c1O [PPADS, tetrasodium salt of pyridoxalphosphate-6-azophenyl-2',4'-disulfonic acid]",prevented; also recorded: reduced,significantly reduced,prevented,134 ± 32%,significantly reduced,did not significantly inhibit,> 100 µM,significantly blocked; also recorded: significantly reduced,1000 to 5000 nM,prevented
